Results on three molecules are retold here after US20220175777A1, “Inhibitors of Multidrug Resistance Transporter P-Glycoprotein” (Southern Methodist University, priority 2014, published 2022).

One data set has as its system DU145TXR. As to the kind of experiment: Resensitization of DU145TXR to paclitaxel by 29 variants (MTT cell viability). To be noted: for Fold vs PTX ÷ 29: compared to parental compound 29; for Fold vs PTX: vs PTX alone. The data set is classed as cell-based, human. The source says:
The Group 1 ChemGen/docking routine produced variants of P-gp inhibitor 29 resensitize a multidrug resistant, P-gp overexpressing prostate cancer cell line to paclitaxel. The mitochondrial reduction potential of cells is often used as an indicator for cell viability using MTT assays^40-42. Using these assays it was observed that the five Group 1 derivatives of 29 predicted through the ChemGen/docking routine and synthesized here, 216, 227, 231, 541 and 551, re-sensitized the P-gp overexpressing prostate cancer cell line, DU145TXR^33, to the chemotherapeutic, paclitaxel (FIG. 9, showing results of assays at concentrations of 3 μM, 5 μM, 7 μM, and 10 μM).
Cytotoxicity of the chemotherapeutic, paclitaxel (PTX) to P-gp overexpressing prostate cancer cells, DU145TXR, was determined in the absence and presence of the ChemGen designed 29-variants, 216, 227, 231, 541 and 551. For each experimental compound IC50 values of PTX alone or in the presence of inhibitors, fold improvement of PTX sensitivity in the presence of inhibitor, and fold improvement of PTX sensitivity by variants compared to parental compound 29 are given.

The target of data set [1] is T1, Cysteineless Mouse MDR3 P-glycoprotein (Mus musculus, UniProt P21447, C1070A/C1121A/C1223A/C133A/C427A/C638A/C669A/C713A/C952A).
T1 construct: made in house; host or cells: Pichia pastoris
T1 sequence (P21447 whole entry C133A/C427A/C638A/C669A/C713A/C952A/C1070A/C1121A/C1223A): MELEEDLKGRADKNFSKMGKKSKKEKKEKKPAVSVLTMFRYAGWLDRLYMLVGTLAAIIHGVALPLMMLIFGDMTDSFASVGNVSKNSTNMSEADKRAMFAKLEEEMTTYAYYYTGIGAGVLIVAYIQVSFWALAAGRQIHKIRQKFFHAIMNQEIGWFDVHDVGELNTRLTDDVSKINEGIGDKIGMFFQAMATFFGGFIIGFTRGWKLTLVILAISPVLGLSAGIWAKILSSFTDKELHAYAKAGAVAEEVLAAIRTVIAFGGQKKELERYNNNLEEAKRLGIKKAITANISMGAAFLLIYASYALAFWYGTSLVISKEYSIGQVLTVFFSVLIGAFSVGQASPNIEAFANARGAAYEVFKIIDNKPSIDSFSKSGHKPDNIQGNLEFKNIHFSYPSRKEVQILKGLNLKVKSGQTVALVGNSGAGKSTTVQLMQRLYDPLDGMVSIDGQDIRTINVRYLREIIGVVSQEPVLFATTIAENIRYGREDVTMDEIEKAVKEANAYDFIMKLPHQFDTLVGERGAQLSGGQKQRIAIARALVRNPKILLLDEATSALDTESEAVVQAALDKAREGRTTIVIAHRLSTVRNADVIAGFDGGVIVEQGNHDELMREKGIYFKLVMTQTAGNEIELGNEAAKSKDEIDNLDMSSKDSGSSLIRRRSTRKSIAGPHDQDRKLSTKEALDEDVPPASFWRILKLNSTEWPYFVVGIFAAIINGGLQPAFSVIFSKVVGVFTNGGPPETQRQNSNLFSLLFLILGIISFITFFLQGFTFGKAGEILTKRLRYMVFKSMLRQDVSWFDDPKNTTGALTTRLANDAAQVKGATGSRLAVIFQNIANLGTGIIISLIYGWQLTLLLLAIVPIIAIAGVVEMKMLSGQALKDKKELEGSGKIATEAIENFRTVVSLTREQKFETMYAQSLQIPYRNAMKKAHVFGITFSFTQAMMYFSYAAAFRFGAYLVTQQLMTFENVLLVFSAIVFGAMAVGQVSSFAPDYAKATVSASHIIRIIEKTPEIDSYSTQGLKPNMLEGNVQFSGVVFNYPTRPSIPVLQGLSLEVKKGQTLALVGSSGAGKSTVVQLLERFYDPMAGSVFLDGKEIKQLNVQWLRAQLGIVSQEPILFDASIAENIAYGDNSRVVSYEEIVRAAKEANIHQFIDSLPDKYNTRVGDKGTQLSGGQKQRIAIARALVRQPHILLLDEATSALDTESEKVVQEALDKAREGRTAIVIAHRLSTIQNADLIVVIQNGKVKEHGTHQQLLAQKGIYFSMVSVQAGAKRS
In words: SL-ATP binding to P-gp by ESR spectroscopy. Particulars: for Maximum ATP binding mol SL-ANP bound/mol P-gp: SL-ATP titration in presence of compound. The source says: Determination of the possible mode of ATP hydrolysis inhibition by the identified P-glycoprotein inhibitors. The mode of hydrolysis of ATP by P-glycoprotein was investigated by measuring the maximal binding stoichiometry and binding affinity of an analog of ATP, SL-ATP, and by Electron Spin Resonance (ESR) spectroscopy, similar to in both the presence and absence of the identified inhibitors.
The high-field signal of the freely mobile, unbound SL-ATP is compared and is used to calculate the amount of ATP-analog bound to P-glycoprotein. Binding of SL-ATP in the absence of any P-glycoprotein inhibitor saturated at about 2 mol of SL-nucleotide bounds per mol of P-glycoprotein.
FIGS. 2A-2D are plots showing the effects of P-glycoprotein ATP hydrolysis inhibitors on nucleotide binding. Between 30 and 50 microM Pgp were incubated with 50 microM inhibitor compound. Increasing amounts of SL-ATP were added. The ESR signal of the free SL-ATP in the presence of P-glycoprotein and inhibitor was compared to that in the absence of P-glycoprotein. The graphs represent at least 3 individual studies each using 3 to 5 different P-glycoprotein preparations.

The target in data set [2] is Normal Human MDR1 P-glycoprotein (Homo sapiens, UniProt P08183). In words: ATP hydrolysis by human P-gp assembled into membrane nanodiscs. The data set is classed as biochemical. Particulars: human MDR1 P-gp in nanodiscs. The source says: To assess whether the observed discrepancies of compounds stimulating basal P-gp ATPase activity but not being transport substrates of the human pump in the cell culture assessments were due to the fact that these biochemical assays used a cysteineless variant of the mouse MDR3 P-glycoprotein, the experiments were repeated using normal human MDR1 P-gp. In order to stabilize the human protein for the activity assays, the protein was assembled into membrane nanodiscs as described herein.
Chain of Normal Human MDR1 P-glycoprotein (P08183 whole entry): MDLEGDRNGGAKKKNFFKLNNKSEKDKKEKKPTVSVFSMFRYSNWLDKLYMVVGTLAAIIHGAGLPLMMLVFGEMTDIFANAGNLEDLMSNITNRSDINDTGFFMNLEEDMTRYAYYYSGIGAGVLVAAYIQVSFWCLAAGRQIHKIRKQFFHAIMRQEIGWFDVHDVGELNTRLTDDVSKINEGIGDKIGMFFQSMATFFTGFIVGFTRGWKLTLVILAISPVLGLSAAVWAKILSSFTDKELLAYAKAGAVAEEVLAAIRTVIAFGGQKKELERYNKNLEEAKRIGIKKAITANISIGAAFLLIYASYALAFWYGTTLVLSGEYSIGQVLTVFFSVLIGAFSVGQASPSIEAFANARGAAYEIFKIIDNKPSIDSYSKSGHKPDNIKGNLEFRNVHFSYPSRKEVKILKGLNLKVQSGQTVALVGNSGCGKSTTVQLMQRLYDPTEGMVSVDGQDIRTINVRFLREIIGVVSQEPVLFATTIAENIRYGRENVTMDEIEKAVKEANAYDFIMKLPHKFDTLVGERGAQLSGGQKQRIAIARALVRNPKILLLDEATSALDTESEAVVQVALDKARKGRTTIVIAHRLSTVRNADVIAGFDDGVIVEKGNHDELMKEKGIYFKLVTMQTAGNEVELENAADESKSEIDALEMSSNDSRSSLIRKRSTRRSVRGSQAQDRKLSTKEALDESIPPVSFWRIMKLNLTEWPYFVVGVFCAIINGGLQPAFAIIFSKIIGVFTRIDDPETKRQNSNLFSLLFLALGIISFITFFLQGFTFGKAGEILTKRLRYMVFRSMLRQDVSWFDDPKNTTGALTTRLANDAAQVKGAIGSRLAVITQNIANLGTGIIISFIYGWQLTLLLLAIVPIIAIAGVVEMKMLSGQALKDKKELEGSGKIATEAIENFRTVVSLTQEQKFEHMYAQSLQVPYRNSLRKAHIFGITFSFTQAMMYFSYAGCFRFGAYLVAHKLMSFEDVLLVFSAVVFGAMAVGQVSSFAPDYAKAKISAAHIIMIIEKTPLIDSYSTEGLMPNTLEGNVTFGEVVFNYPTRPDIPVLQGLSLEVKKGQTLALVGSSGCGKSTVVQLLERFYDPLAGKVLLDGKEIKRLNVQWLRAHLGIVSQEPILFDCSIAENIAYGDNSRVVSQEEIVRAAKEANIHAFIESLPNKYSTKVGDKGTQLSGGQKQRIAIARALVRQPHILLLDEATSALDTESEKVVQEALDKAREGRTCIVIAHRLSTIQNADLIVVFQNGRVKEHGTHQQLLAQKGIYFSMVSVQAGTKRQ

The target of data set [3] is T1, Cysteineless Mouse MDR3 P-glycoprotein. In words: ATP hydrolysis by purified P-glycoprotein, basal and verapamil-stimulated. The data set is classed as biochemical. To be noted: for Stimulated ATPase (% of DMSO) / Effect on stimulated ATPase: in the presence of verapamil; for Stimulated ATPase (% of DMSO) / Basal ATPase (% of DMSO): ± standard deviation; for Basal ATPase (% of DMSO) / Effect on basal ATPase: without added transport substrate. The source says: The efficacy of molecules identified using in silico methods to function as potential inhibitors of P-glycoprotein was initially tested with regard to their capability to inhibit ATP hydrolysis by purified P-glycoprotein. For this purpose, a well-established activity assay for ATP hydrolyzing enzymes that uses the oxidation of NADH to NAD+ through coupling the reactions of pyruvate kinase and lactate dehydrogenase to the hydrolysis of ATP was adapted to medium throughput conditions on 96 well plates. […] In this set-up, the effects of potential small molecule inhibitors on the ATP hydrolysis activity of P-glycoprotein were tested in duplicate or triplicate and were repeated at least two times using different enzyme preparations.
The P-glycoprotein used in these assays was a close relative of the human P-glycoprotein that is found in mice. A mutant version of the mouse P-glycoprotein where all intrinsic cysteine amino acids had been replaced by alanine residues was recombinantly expressed in the yeast Pichia pastoris and used for these initial tests. […] Prior to testing the ATP-hydrolysis activity, P-glycoprotein was incubated with phosphatidyl choline for stabilization of the enzyme during the assay.
Different concentrations of the to-be-tested small molecules were added and pre-incubated at 37° C. The ATP hydrolysis reaction was then started by adding equal volume of double concentrated ATPase cocktail. The final ATP concentration in the reaction was 2 mM. The reaction was allowed to proceed for 20 minutes, the rate of ATP hydrolysis was calculated using the molar extinction coefficient of NADH, and the one-to-one relationship of ATP hydrolyzed and NADH oxidized.
Evaluation of mode of inhibition of P-glycoprotein by Group 1 and Group 2 variants of compound 29. To assess the mode of inhibition of P-gp by the novel variants of P-gp inhibitor 29, ATP hydrolysis by P-gp was evaluated in the presence or absence of the variants. […] Murine P-gp (MDR3) expressed in Pichia pastoris that had all naturally occurring cysteines replaced with alanine, was used^45, 46. It is widely assumed that the ATP hydrolytic rate of P-gp is stimulated in the presence of transport substrates when compared to ATP hydrolysis in the absence of transport substrates. Assays comparing these rates can therefore be useful not only in identifying inhibitors of P-gp catalyzed ATP hydrolysis, but also to potentially infer whether a compound might be a transport substrate if basal ATPase rates are stimulated by the addition of a compound.

Data set [4] deals with P-gp overexpressing DU145TXR cells. In words: Calcein AM accumulation assay. The format is cell-based, human. The procedure: Accumulation and cellular retention of calcein AM in P-gp overexpressing prostate cancer cells upon incubation with Group 1 SMU-29 variants. Calcein AM accumulation assays have been used by us previously to evaluate P-gp-substrate accumulation in real time in the presence or absence of P-gp inhibitors^28. For these assays, P-gp overexpressing DU145TXR cells were incubated with the respective inhibitors in the presence of the P-gp substrate, calcein AM. Inhibition of P-gp leads to cellular accumulation of calcein AM and to cleavage of its acetoxymethyl ester groups, resulting in the generation of the highly fluorescent compound, calcein. The anionic calcein is not a substrate of P-gp and remains in the cells. In these assays, the relative fluorescence of cellular calcein was measured over time and the results of these assays are shown in FIG. 10A.
The inventors determined if preferential partitioning of variants in the hydrophobic part of the cell membrane may keep them more distant from the putative allosteric site on P-gp which is located adjacent to the membrane in the cytoplasm, therefore potentially slowing the inhibitory effect of the compounds.

In another data set the target is P-gp (Homo sapiens, UniProt P08183). To be noted: for Transport substrate for P-gp: not told. The procedure:
Stimulation of basal ATPase by 29-variants was used as an indicator that a compound may be a P-gp transport substrate. Effects on stimulated P-gp ATPase activity indicated whether a compound directly interfered with ATP usage by the protein (***, p<0.001; **, p<0.01; *, p<0.1; NS, not significant). Quantitative cellular accumulation of 29-variants was performed using LC-MS/MS and is presented as a ratio of the cellular amounts of 29-variants in the presence of P-gp inhibitor, tariquidar, divided by amounts accumulated in its absence. […] Binding of an ATP analog, SL-ATP, to P-gp was used to determine whether ATP binding to P-gp was affected by the 29-variants. Values+/−standard deviations are shown for at least three different P-gp preparations and three independent SL-ATP titration experiments. The values for SL-ATP binding in the presence of 29 were taken directly from Brewer et al. (2014).
Intracellular accumulation of compound 29 variants. Cell accumulation assays for each of the 29 variants were performed as in reference^28 to more directly assess whether the compounds were indeed transport substrates for P-gp.

Chain of P-gp (P08183 whole entry): as above

With `Cc1cc(C)c(-c2cc(NC(=O)CSc3cccc(NC(=O)c4cncc(Br)c4)c3)n(-c3ccccc3)n2)cc1C` [SMU29-551, 5-bromo-N-(3-((2-oxo-2-((1-phenyl-3-(2,4,5-trimethylphenyl)-1H-pyrazol-5-yl)amino)ethyl)thio)phenyl)nicotinamide], the “Fold vs PTX ÷ 29” value with DU145TXR (5 μM inhibitor) is listed as 9.7 Fold; in the data set on DU145TXR (7 μM inhibitor), 6.6 Fold; with DU145TXR (10 μM inhibitor), 3.5 Fold. Besides, the “Fold vs PTX” value with DU145TXR (5 μM inhibitor) was 106 Fold; in the data set on DU145TXR (7 μM inhibitor), 236 Fold; with DU145TXR (10 μM inhibitor), 353 Fold. For the same molecule, in data set [1], the “Maximum ATP binding mol SL-ANP bound/mol P-gp” value is on record as 1.7 ± 0.1 mol SL-ANP bound/mol P-gp. The figures for the “Basal ATPase (% of DMSO)” value in data set [2] and in data set [3] were 72 ± 9 % of DMSO and 150 ± 6 % of DMSO, respectively. The “Stimulated ATPase (% of DMSO)” value in data set [2] was 27 ± 1 % of DMSO; in data set [3], 62 ± 5 % of DMSO. Also, the “Cellular calcein accumulation relative to parental compound 29” value was “equivalent to 29” in data set [4] (after 6-hour pre-incubation) and “marginally higher calcein accumulation than parental compound 29” in data set [4] (no preincubation).
`Cc1cc(C)c(-c2cc(NC(=O)CSCC(=O)c3ccc4c(c3)Cc3ccccc3-4)n(-c3ccccc3)n2)cc1C` [SMU29-216]: in the data set with DU145TXR (5 μM inhibitor), the “Fold vs PTX ÷ 29” value was determined as 1.3 Fold and the “Fold vs PTX” value came to 14 Fold. Besides, in the data set with DU145TXR (7 μM inhibitor), the “Fold vs PTX ÷ 29” value came to 1 Fold and the “Fold vs PTX” value amounted to 34 Fold. Besides, in the data set with DU145TXR (10 μM inhibitor), the “Fold vs PTX ÷ 29” value came to 0.4 Fold and the “Fold vs PTX” value stood at 37 Fold. Moreover, in data set [1], the “Effect on SL-ANP binding” value is reported as “no” and the “Maximum ATP binding mol SL-ANP bound/mol P-gp” value came to 1.7 ± 0.1 mol SL-ANP bound/mol P-gp. In addition, at P-gp, the “Cellular accumulation: ratio of plus Tariquidar over no Tariquidar” value was 1.1 and the “Transport substrate for P-gp” value is “no”. In data set [2], the “Effect on basal ATPase” value is listed as “inhibitor”, the “Effect on stimulated ATPase” value was “inhibitor”, the “Basal ATPase (% of DMSO)” value is listed as 69 ± 8 % of DMSO and the “Stimulated ATPase (% of DMSO)” value is recorded as 64 ± 6 % of DMSO. In addition, in data set [3], the “Effect on stimulated ATPase” value is on record as “none”, the “Stimulated ATPase (% of DMSO)” value was 108 ± 2 % of DMSO, the “Effect on basal ATPase” value is reported as “none” and the “Basal ATPase (% of DMSO)” value is reported as 105 ± 7 % of DMSO. Moreover, in data set [3] (listed as 216), the “Effect on stimulated ATPase” value is recorded as “did not affect” and the “Effect on basal ATPase” value was “did not significantly affect”.
Take `Cc1cc(C)c(-c2cc(NC(=O)CSCC(=O)NCc3ccc(F)cc3)n(-c3ccccc3)n2)cc1C` [SMU29-286]: the “Maximum ATP binding mol SL-ANP bound/mol P-gp” value in data set [1] is listed as 1.9 ± 0.1 mol SL-ANP bound/mol P-gp. Besides, at P-gp, the “Intracellular accumulation in the presence versus absence of TQR” value is “more modest, but statistically significant increases” and the “Transport substrate for P-gp” value is listed as “very likely to be transport substrates”. In data set [2], the “Basal ATPase (% of DMSO)” value was 95 ± 3 % of DMSO and the “Stimulated ATPase (% of DMSO)” value was 59 ± 4 % of DMSO. Also, in data set [3], the “Stimulated ATPase (% of DMSO)” value was 98 ± 2 % of DMSO and the “Basal ATPase (% of DMSO)” value is reported as 143 ± 32 % of DMSO. Further, the “Effect on basal ATPase” value in data set [3] (listed as 286) was “stimulated basal ATPase only marginally or with no statistical significance”.
